From ChEMBL document CHEMBL5096221, “Discovery of a Highly Potent and Orally Bioavailable STAT3 Dual Phosphorylation Inhibitor for Pancreatic Cancer Treatment” (J Med Chem, 2022)
pIC50: −log10 of the molar value. Activity calls are given as the source filed them. The rule behind the calls is not given here.

How the values were obtained:
[1] = Inhibition of ATP production in human BXPC-3 cells incubated for 20 to 24 hrs by ATP assay kit method; type: functional, cell-based
[2] = Microsomal stability in human liver microsomes assessed as half life incubated upto 40 mins in presence of NADPH by LC-MS/MS analysis; type: ADME, Microsome
[3] = Microsomal stability in human liver microsomes assessed as compound remaining incubated for 60 mins in presence of NADPH by LC-MS/MS analysis; type: ADME, Microsome; details: read-out: Stability
[4] = Microsomal stability in rat liver microsomes assessed as compound remaining incubated for 60 mins in presence of NADPH by LC-MS/MS analysis; type: ADME, Microsome; details: read-out: Stability
[5] = Microsomal stability in dog liver microsomes assessed as compound remaining incubated for 60 mins in presence of NADPH by LC-MS/MS analysis; type: ADME, Canis lupus familiaris, Microsome; details: read-out: Stability
[6] = target: Cytochrome P450 2D6 (Homo sapiens, UniProt P10635); assay: Inhibition of CYP2D6 in human liver microsomes using dextromethorphan as substrate incubated for 60 mins in presence of NADPH by HPLC analysis; type: ADME, Microsome
[7] = AUC (0-infinity) in BALB/c mouse at 1 mg/kg,iv measured upto 24 hrs by LC-MS/MS analysis; type: ADME, organism-based; parameters: dose 1 mg/kg, time < 24 hrs, route iv; details: in vivo
[8] = Cmax in BALB/c mouse at 10 mg/kg,po measured upto 24 hrs by LC-MS/MS analysis; type: ADME, organism-based; parameters: time < 24 hrs, dose 10 mg/kg, route po; details: in vivo
[9] = MRT (0 to last) in BALB/c mouse at 10 mg/kg,po measured upto 24 hrs by LC-MS/MS analysis; type: ADME, organism-based; details: in vivo
[10] = target: T1, Signal transducer and activator of transcription 3 (Homo sapiens, UniProt P40763); assay: Inhibition of STAT3 in human Capan-2 cells assessed as inhibition of STAT3 phosphorylation at Tyr 705 at 1 to 30 nM incubated for 22 to 24 hrs by western blot analysis; type: cell-based; details: dose 1-30 nM, time 22-24 hrs, DDE = dose-dependent effect
[11] = target: T1, Signal transducer and activator of transcription 3; assay: Inhibition of STAT3 in human BXPC-3 cells assessed as inhibition of STAT3 phosphorylation at Ser 727 at 30 nM incubated for 4 to 24 hrs by western blot analysis; type: cell-based; details: time 4-24 hrs, TDE = time-dependent effect
[12] = target: T1, Signal transducer and activator of transcription 3; assay: Inhibition of STAT3 in human BXPC-3 cells assessed as inhibition of STAT3 phosphorylation at Tyr 705 at 10 nM incubated for 22 to 24 hrs by western blot analysis; type: cell-based; details: time 22-24 hrs
[13] = target: T1, Signal transducer and activator of transcription 3; assay: Inhibition of STAT3 in human BXPC-3 cells assessed as reduction of Cyclin D1 expression at 1 to 30 nM incubated for 22 to 24 hrs by western blot analysis; type: cell-based; details: dose 1-30 nM, time 22-24 hrs, DDE = dose-dependent effect
[14] = target: T1, Signal transducer and activator of transcription 3; assay: Inhibition of STAT3 in human Capan-2 cells assessed as reduction of c-Myc expression at 1 to 30 nM incubated for 22 to 24 hrs by western blot analysis; type: cell-based; details: dose 1-30 nM, time 22-24 hrs, DDE = dose-dependent effect
[15] = target: T1, Signal transducer and activator of transcription 3; assay: Inhibition of STAT3 in human BXPC-3 cells assessed as reduction of Cyclin D1 expression at 30 nM incubated for 4 to 24 hrs by western blot analysis; type: cell-based; details: time 4-24 hrs, TDE = time-dependent effect
[16] = target: T1, Signal transducer and activator of transcription 3; assay: Inhibition of STAT3 in human Capan-2 cells assessed as reduction of c-Myc expression at 30 nM incubated for 4 to 24 hrs by western blot analysis; type: cell-based; details: time 4-24 hrs, TDE = time-dependent effect
[17] = target: T1, Signal transducer and activator of transcription 3; assay: Inhibition of STAT3 in human Capan-2 cells assessed as reduction of Cyclin D1 expression at 30 nM incubated for 4 to 24 hrs by western blot analysis; type: cell-based; details: time 4-24 hrs, TDE = time-dependent effect
[18] = target: Tyrosine-protein kinase JAK1 (Homo sapiens, UniProt P23458); assay: Inhibition of JAK1 (unknown origin)
[19] = target: Mitogen-activated protein kinase 8 (Homo sapiens, UniProt P45983); assay: Inhibition of JNK1 (unknown origin)
[20] = target: T1, Signal transducer and activator of transcription 3; assay: Inhibition of STAT3 in human Capan-2 cells assessed as inhibition of IL-6 stimulated STAT3 phosphorylation at Tyr 705 at 1 to 30 nM by western blot assay; type: cell-based; details: dose 1-30 nM, DDE = dose-dependent effect
[21] = system: CFPAC-1; assay: Inhibition of mitochondrial respiration in human CFPAC-1 cells at 1 to 30 nM incubated for 1 hr by seahorse XF96 flux analyzer; type: functional, cell-based; details: dose 1-30 nM, DDE = dose-dependent effect
[22] = system: BXPC-3; assay: Inhibition of mitochondrial respiration in human BXPC-3 cells assessed as reduction in basal respiration rate at 1 to 30 nM incubated for 1 hr by seahorse XF96 flux analyzer; type: functional, cell-based; details: dose 1-30 nM, DDE = dose-dependent effect
[23] = system: CFPAC-1; assay: Inhibition of mitochondrial respiration in human CFPAC-1 cells assessed as reduction in basal respiration rate at 1 to 30 nM incubated for 1 hr by seahorse XF96 flux analyzer; type: functional, cell-based; details: dose 1-30 nM, DDE = dose-dependent effect
[24] = system: CFPAC-1; assay: Inhibition of mitochondrial respiration in human CFPAC-1 cells assessed as reduction in maximal respiration rate at 1 to 30 nM incubated for 1 hr by seahorse XF96 flux analyzer; type: functional, cell-based; details: dose 1-30 nM, DDE = dose-dependent effect
[25] = system: Capan-2; assay: Inhibition of colony formation in human Capan-2 cells at 3 to 10 nM incubated for 5 to 7 days by crystal violet staining assay; type: functional, cell-based; details: dose 3-10 nM, time 5-7 day, DDE = dose-dependent effect
[26] = system: BXPC-3; assay: Antitumor activity against human BXPC-3 cells xenografted BALB/c mouse model assessed as tumor growth inhibition at 30 mg/kg,po administrated once daily for 8 weeks; type: functional; details: BXPC-3, 1344 h, read-out: TGI
[27] = system: Mus musculus; assay: In vivo inhibition of STAT3 in BALB/c mouse xenografted with human BXPC-3 cells assessed as inhibition of STAT3 phosphorylation at Tyr 705 at 30 mg/kg,po administrated once daily for 8 weeks by immunohistochemical analysis; type: functional, organism-based
[28] = system: Mus musculus; assay: In vivo inhibition of STAT3 in BALB/c mouse xenografted with human BXPC-3 cells assessed as inhibition of STAT3 phosphorylation at Ser 727 at 10 mg/kg,po administrated once daily for 8 weeks by immunohistochemical analysis; type: functional, organism-based
[29] = system: Mus musculus; assay: In vivo inhibition of STAT3 in BALB/c mouse xenografted with human BXPC-3 cells assessed as inhibition of STAT3 phosphorylation at Ser 727 at 30 mg/kg,po administrated once daily for 8 weeks by immunohistochemical analysis; type: functional, organism-based
[30] = system: BXPC-3; assay: Antitumor activity against human BXPC-3 cells xenografted BALB/c mouse model assessed as reduction in Ki67 expression at 30 mg/kg,po administrated once daily for 8 weeks by immunohistochemical analysis; type: functional, organism-based
[31] = Toxicity in BALB/c mouse xenografted with human BXPC-3 cells assessed as effect on heart at 10 mg/kg,po administrated once daily for 8 weeks by H and E staining based microscopic analysis; type: organism-based; details: in vivo, 1344 h
[32] = Toxicity in BALB/c mouse xenografted with human BXPC-3 cells assessed as effect on heart at 30 mg/kg,po administrated once daily for 8 weeks by H and E staining based microscopic analysis; type: organism-based; details: in vivo, 1344 h
[33] = Toxicity in BALB/c mouse xenografted with human BXPC-3 cells assessed as effect on spleen at 30 mg/kg,po administrated once daily for 8 weeks by H and E staining based microscopic analysis; type: organism-based; details: in vivo, 1344 h
[34] = target: T1, Signal transducer and activator of transcription 3; assay: Thermal stabilization of STAT3 in human BXPC-3 cells at 10 microM at 44.6 degreeC incubated for 1 hrs by cellular thermal shift assay; type: cell-based

T1 sequence (P40763 whole entry): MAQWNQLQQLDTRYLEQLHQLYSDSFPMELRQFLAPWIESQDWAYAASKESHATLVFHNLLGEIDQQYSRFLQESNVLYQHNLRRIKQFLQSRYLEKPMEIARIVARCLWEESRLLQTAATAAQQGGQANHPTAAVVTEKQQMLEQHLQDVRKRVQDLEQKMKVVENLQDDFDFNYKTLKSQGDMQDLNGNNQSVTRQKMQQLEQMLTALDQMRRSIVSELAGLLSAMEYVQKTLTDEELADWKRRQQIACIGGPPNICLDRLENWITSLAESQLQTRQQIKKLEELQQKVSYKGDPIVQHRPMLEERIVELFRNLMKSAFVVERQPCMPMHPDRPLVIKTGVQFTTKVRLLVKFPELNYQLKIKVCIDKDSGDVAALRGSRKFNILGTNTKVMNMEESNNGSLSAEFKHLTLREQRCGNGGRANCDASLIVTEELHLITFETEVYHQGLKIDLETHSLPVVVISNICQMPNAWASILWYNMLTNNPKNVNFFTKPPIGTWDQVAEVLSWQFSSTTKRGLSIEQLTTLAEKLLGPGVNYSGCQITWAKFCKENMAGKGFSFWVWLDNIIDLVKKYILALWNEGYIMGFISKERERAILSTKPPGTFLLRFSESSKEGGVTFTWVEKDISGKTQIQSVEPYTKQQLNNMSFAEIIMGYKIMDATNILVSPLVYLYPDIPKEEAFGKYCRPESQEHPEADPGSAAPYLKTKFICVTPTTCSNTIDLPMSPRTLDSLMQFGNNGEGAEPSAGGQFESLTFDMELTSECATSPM
Sequence of Mitogen-activated protein kinase 8 (P45983 whole entry): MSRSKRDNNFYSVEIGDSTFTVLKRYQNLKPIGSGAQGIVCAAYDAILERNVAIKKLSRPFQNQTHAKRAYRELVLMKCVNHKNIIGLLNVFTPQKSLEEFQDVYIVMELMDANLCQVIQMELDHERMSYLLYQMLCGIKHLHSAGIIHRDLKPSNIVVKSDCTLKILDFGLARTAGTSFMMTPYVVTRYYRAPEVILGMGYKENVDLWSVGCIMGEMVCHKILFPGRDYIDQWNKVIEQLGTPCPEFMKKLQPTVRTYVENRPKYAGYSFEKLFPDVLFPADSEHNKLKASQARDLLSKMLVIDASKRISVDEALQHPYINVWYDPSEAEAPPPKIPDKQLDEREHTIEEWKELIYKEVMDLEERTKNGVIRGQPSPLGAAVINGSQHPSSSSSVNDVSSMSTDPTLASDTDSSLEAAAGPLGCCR
Sequence of Tyrosine-protein kinase JAK1 (P23458 whole entry): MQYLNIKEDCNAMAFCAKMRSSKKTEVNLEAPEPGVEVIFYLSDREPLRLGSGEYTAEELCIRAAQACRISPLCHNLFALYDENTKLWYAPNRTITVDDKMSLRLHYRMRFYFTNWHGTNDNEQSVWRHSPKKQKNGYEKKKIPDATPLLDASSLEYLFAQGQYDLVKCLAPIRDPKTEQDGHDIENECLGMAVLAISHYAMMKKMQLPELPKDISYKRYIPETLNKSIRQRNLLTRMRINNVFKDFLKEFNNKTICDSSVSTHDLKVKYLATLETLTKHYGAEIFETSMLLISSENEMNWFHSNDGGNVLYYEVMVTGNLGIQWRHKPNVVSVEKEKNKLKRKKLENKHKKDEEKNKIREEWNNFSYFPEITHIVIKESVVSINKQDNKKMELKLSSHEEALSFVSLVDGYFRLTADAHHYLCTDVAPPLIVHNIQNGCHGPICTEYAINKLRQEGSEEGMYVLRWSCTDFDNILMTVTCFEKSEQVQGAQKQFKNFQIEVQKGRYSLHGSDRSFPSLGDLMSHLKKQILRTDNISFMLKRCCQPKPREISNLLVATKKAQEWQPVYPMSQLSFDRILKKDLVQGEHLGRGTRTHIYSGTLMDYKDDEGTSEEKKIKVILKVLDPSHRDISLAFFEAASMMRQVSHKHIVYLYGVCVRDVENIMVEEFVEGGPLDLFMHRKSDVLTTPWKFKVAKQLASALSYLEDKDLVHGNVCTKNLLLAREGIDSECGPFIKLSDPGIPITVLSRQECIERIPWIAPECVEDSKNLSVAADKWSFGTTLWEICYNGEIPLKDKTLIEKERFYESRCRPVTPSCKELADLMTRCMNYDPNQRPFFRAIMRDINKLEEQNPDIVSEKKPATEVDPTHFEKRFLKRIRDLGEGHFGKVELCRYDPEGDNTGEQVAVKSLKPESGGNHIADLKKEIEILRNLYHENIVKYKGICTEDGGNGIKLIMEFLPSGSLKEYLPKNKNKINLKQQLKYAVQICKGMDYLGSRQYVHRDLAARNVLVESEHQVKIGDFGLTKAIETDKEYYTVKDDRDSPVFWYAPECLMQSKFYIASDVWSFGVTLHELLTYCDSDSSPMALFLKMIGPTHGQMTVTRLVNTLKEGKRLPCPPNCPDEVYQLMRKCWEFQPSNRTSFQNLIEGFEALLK
Sequence of Cytochrome P450 2D6 (P10635 whole entry): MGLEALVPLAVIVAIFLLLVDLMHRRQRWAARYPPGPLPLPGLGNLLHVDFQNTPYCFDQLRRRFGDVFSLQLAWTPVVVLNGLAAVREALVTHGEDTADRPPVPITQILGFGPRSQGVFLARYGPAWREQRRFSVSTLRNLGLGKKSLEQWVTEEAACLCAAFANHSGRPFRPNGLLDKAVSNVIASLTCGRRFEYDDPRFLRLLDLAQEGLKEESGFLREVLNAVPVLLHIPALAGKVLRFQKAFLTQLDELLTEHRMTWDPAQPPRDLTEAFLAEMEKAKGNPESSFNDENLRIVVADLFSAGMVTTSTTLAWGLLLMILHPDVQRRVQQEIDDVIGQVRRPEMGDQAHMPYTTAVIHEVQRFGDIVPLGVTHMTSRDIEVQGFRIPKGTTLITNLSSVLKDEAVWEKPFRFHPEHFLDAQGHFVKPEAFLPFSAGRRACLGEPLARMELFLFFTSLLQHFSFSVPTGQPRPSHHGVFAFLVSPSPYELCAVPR

COc1ccc(-c2noc(-c3cnc(Oc4ccc5cc(C(=O)N6CCN(Cc7ccc(OCC(F)(F)F)cc7)CC6)n(C)c5c4)cn3)n2)cc1
pIC50 [1]: 8.38 | half-life [2]: 1.26 h | remaining at 1 h [3]: 59.5% | remaining at 1 h [4]: 60.5% | remaining at 1 h [5]: 55.8% | pIC50 [6]: < 4.30 | AUC(0-inf) [7]: 11600 ng·h/mL | Cmax [8]: 1810 ng/mL | MRT last at 24 h [9]: 9.8 h | inhibition [10]: Dde | inhibition [11]: Tde | inhibition [12]: Active | inhibition [13]: Dde | inhibition [14]: Dde | inhibition [15]: Tde | inhibition [16]: Tde | inhibition [17]: Tde | pIC50 [18]: < 5.00 | pIC50 [19]: < 5.00 | inhibition [20]: Dde | inhibition [21]: Dde | inhibition [22]: Dde | inhibition [23]: Dde | inhibition [24]: Dde | inhibition [25]: Dde | inhibition in vivo at 30 mg/kg [26]: 74.6% | inhibition [27]: Active | inhibition [28]: Active | inhibition [29]: Active | Activity [30]: Active | Activity [31]: Non-Toxic | Activity [32]: Non-Toxic | Activity [33]: Non-Toxic | Activity [34]: Active
